# Test results from patent publication US20070179060A1, “6-(Poly-substituted aryl)-4-aminopicolinates and their use as herbicides” (priority 2006, published 2007).
# What was measured:
# [1] = test system: Hordeum vulgare (winter barley); assay: Postemergence herbicidal activity of mixtures in cereal crops; assay type: in vivo; conditions: after 3 weeks
# Protocol: (§1) Seeds of the desired test plant species were planted and reared as described in “Evaluation of Postemergence Herbicidal Safening in Cereal Crops” (section 37).
# (§2) Treatments consisted of compound (as listed in Tables 6 and 7), fluroxypyr methylheptyl ester (MHE), and clopyralid monoethanolamine (MEA) salt alone and in combination. Weighed amounts were placed in 25 mL glass vials and dissolved in a volume of 97:3 v/v acetone/DMSO to obtain 4.5 mg ai/mL stock solutions. […] The concentrated stock solutions were diluted to 1.5 mg ai/mL with the addition of 2 volumes of an aqueous mixture containing acetone, water, isopropyl alcohol, DMSO, Agri-dex crop oil concentrate, and Triton® X-77 surfactant in a 64.7:26.0:6.7:2.0:0.7:0.01 v/v ratio. A dilution solution was prepared by mixing 1 volume of 97:3 v/v acetone/DMSO and 2 volumes of an aqueous mixture containing acetone, water, isopropyl alcohol, DMSO, Agri-dex crop oil concentrate, and Triton® X-77 surfactant in a 64.7:26.0:6.7:2.0:0.7:0.01 v/v ratio. Compound requirements are based upon a 12 mL application volume at a rate of 187 L/ha. Spray solutions of fluroxypyr MHE, clopyralid MEA, and experimental compound mixtures were prepared by adding the stock solutions to the appropriate amount of dilution solution to form 12 mL spray solution with active ingredients in two- and three-way combinations. Formulated compounds were applied to the plant material with an overhead Mandel track sprayer equipped with a 8002E nozzles calibrated to deliver 187 L/ha over an application area of 0.503 square meters at a spray height of 18 inches (43 cm) above average plant canope. Control plants were sprayed in the same manner with the solvent blank.
# (§3) The treated plants and control plants were placed in a greenhouse as described above and watered by sub-irrigation to prevent wash-off of the test compounds. After 3 weeks the condition of the test plants as compared with that of the control plants was determined visually and scored on a scale of 0 to 100 percent where 0 corresponds to no injury and 100 corresponds to complete kill.
# (§4) Colby's equation was used to determine the herbicidal effects expected from the mixtures (Colby, S. R. 1967. Calculation of the synergistic and antagonistic response of herbicide combinations. Weeds 15:20-22.).
# (§5) The following equation was used to calculate the expected activity of mixtures containing two active ingredients, A and B: Expected=A+B−(A×B/100) • A=observed efficacy of active ingredient A at the same concentration as used in the mixture. • B=observed efficacy of active ingredient B at the same concentration as used in the mixture.
# (§6) The following equation was used to calculate the expected activity of mixtures containing three active ingredients, A, B, and C: Expected=A+B+C−(A×B+B×C+A×C)/100+(A×B×C)/10000 • A=observed efficacy of active ingredient A at the same concentration as used in the mixture. • B=observed efficacy of active ingredient B at the same concentration as used in the mixture. • C=observed efficacy of active ingredient C at the same concentration as used in the mixture.
# [2] = test system: Triticum aestivum (spring wheat); assay: as above; assay type: in vivo; conditions: after 3 weeks
# Protocol: as §1, §2, §3, §4, §5, §6
# Matricaria chamomilla = assay: as above; assay type: in vivo; conditions: after 3 weeks
# Protocol: as §1, §2, §3, §4, §5, §6
# [3] = test system: redroot pigweed (Amaranthus retroflexus); assay: Postemergence herbicidal activity; assay type: in vivo; conditions: post-emergent, 140 g ai/ha, after 14 days
# Outline: (§7)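 Plants grown 7-21 days in greenhouse (about 15 h photoperiod, 23-29° C day, 22-28° C night) to first or second true leaf stage. Compounds in acetone/water/isopropanol/DMSO carrier with crop oil concentrate and Triton X-155 sprayed overhead at 187 L/ha; controls received solvent blank. Plants sub-irrigated afterwards; dose responses analysed by probit analysis.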
# [4] = test system: lambsquarter (Chenopodium album); assay: Postemergence herbicidal activity; assay type: in vivo; conditions: post-emergent, 140 g ai/ha, after 14 days
# Outline: as §7
# [5] = test system: velvetleaf (Abutilon theophrasti); assay: Postemergence herbicidal activity; assay type: in vivo; conditions: post-emergent, 140 g ai/ha, after 14 days
# Outline: as §7
# Scirpus juncoides = assay: Herbicidal activity in transplanted paddy rice; assay type: in vivo; conditions: Schoenoplectiella juncoides, 504 h, paddy water application, after 3 weeks, read-out: % Control SCPJU
# Protocol: (§8) Weed seeds or nutlets of the desired test plant species were planted in puddled soil (mud) prepared by mixing a non-sterilized mineral soil (28 percent silt, 18 percent clay, and 54 percent sand, with a pH of about 7.3 to 7.8 and an organic matter content of about 1.0 percent) and water at a ratio of 100 kg of soil to 19 L of water. The prepared mud was dispensed in 250 mL aliquots into 480 mL non-perforated plastic pots with a surface area of 91.6 square centimeters leaving a headspace of 3 centimeters in each pot. […] Seedlings at the second or third leaf stage of growth were transplanted into 650 mL of mud contained in 960 mL non-perforated plastic pots with a surface area of 91.6 square centimeters 4 days prior to herbicide application. The paddy was created by filling the 3 centimeter headspace of the pots with water. When required to ensure good germination and healthy plants, a fungicide treatment and/or other chemical or physical treatment was applied. The plants were grown for 4-14 days in a greenhouse with an approximate 14 hour photoperiod which was maintained at about 29° C. during the day and 26° C. during the night. Nutrients were added as Osmocote (17:6:10, N:P:K+minor nutrients) at 2 g per pot. Water was added on a regular basis to maintain the paddy flood, and supplemental lighting was provided with overhead metal halide 1000-Watt lamps as necessary. The plants were employed for testing when they reached the second or third true leaf stage. A weighed amount, determined by the highest rate to be tested, of each test compound was placed in a 120 mL glass vial and was dissolved in 20 mL of acetone to obtain concentrated stock solutions. […] Application rates of ½×, ¼×, ⅛× and 1/16× of the high rate were obtained by injecting an appropriate amount of the stock solution into the aqueous layer of the paddy. Control plants were treated in the same manner with the solvent blank. The treated plants and control plants were placed in a greenhouse as described above and water was added as needed to maintain a paddy flood.
# Monochoria vaginalis = assay: Herbicidal activity in transplanted paddy rice; assay type: in vivo; conditions: Pontederia vaginalis, 504 h, paddy water application, after 3 weeks, read-out: % Control MOOVA
# Protocol: as §8
# Cyperus difformis = assay: Herbicidal activity in transplanted paddy rice; assay type: in vivo; conditions: Cyperus difformis, 504 h, paddy water application, after 3 weeks, read-out: % Control CYPDI
# Protocol: as §8
# [6] = test system: rice (Orysa sativa var. Japonica); assay: Herbicidal activity in transplanted paddy rice; assay type: in vivo; conditions: Oryza sativa, 504 h, transplant rice (crop), paddy water application, after 3 weeks
# Protocol: as §8
# Echinochloa crus-galli = assay: Herbicidal activity in transplanted paddy rice; assay type: in vivo; conditions: Echinochloa crus-galli, 504 h, paddy water application, after 3 weeks, read-out: % Control ECHCG
# Protocol: as §8
# Papaver rhoeas = assay: Postemergence herbicidal activity in cereal crops; assay type: in vivo; conditions: post-emergent, 17.5 g ai/ha, after 20-22 days
# Outline: (§9)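 Greenhouse plants at the second or third true leaf stage are sprayed postemergence by track sprayer delivering 187 L/ha. Spray solution is an acetone/water/isopropanol/DMSO mixture with crop oil concentrate and Triton X-77. Treated plants are kept at about 18 °C day/17 °C night under a ~14 h photoperiod with sub-irrigation; blank-sprayed plants serve as controls.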
# [7] = test system: wheat (Triticum aestivum); assay: Postemergence herbicidal activity in cereal crops; assay type: in vivo; conditions: crop, post-emergent, 17.5 g ai/ha, after 20-22 days
# Outline: as §9
# Galium aparine = assay: Postemergence herbicidal activity in cereal crops; assay type: in vivo; conditions: post-emergent, 17.5 g ai/ha, after 20-22 days
# Outline: as §9
# Veronica persica = assay: Postemergence herbicidal activity in cereal crops; assay type: in vivo; conditions: post-emergent, 17.5 g ai/ha, after 20-22 days
# Outline: as §9
# Lamium purpureum = assay: Postemergence herbicidal activity in cereal crops; assay type: in vivo; conditions: post-emergent, 17.5 g ai/ha, after 20-22 days
# Outline: as §9
# barley (Hordeum vulare) = assay: Postemergence herbicidal activity in cereal crops; assay type: in vivo; conditions: crop, post-emergent, 17.5 g ai/ha, after 20-22 days
# Outline: as §9
# [8] = Table 6, applied alone, 35 g ai/ha
# [9] = Table 7, applied alone, 35 g ai/ha
# [10] = Table 7, applied alone, 70 g ai/ha
smiles,measurement,setting,value
"NCCO.O=C(O)c1nc(Cl)ccc1Cl [Clopyralid MEA, clopyralid monoethanolamine (MEA) salt]",% Control HORVW Ob,[1]; [8],0%
same,% Control HORVW Ob,[1]; [9],0%
same,% Control HORVW Ob,[1]; [10],0%
same,% Control TRZAS Ob,[2]; [8],0%
same,% Control TRZAS Ob,[2]; [9],0%
same,% Control TRZAS Ob,[2]; [10],0%
same,% Control MATCH Ob,Matricaria chamomilla; [8],20%
same,% Control MATCH Ob,Matricaria chamomilla; [9],5%
same,% Control MATCH Ob,Matricaria chamomilla; [10],40%
"CCCCOCCOC(=O)c1nc(-c2ccc(Cl)c(OC)c2F)cc(N)c1Cl [Compound 92, 4-Amino-3-chloro-6-(4-chloro-2-fluoro-3-methoxyphenyl)pyridine-2-carboxylic acid, 2-butoxy-ethyl ester]",melting point,,72 to 74 °C
same,% Control AMARE,[3],100%
same,% Control CHEAL,[4],100%
same,% Control ABUTH,[5],100%
same,pest or weed control at 17.5 g/ha,Scirpus juncoides; 17.5 g ai/ha,90%
same,pest or weed control at 17.5 g/ha,Monochoria vaginalis; 17.5 g ai/ha,100%
same,pest or weed control at 17.5 g/ha,Cyperus difformis; 17.5 g ai/ha,99%
same,pest or weed control at 17.5 g/ha,[6]; 17.5 g ai/ha,0%
same,pest or weed control at 17.5 g/ha,Echinochloa crus-galli; 17.5 g ai/ha,40%
same,% Control PAPRH,Papaver rhoeas,95%
same,% Control TRZAS,[7],0%
same,% Control GALAP,Galium aparine,99%
same,% Control VERPE,Veronica persica,30%
same,% Control LAMPU,Lamium purpureum,100%
same,% Control HORVS,barley (Hordeum vulare),0%
"COc1c(Br)ccc(-c2cc(N)c(Cl)c(C(=O)O)n2)c1F [Compound 120, 4-Amino-6-(4-bromo-2-fluoro-3-methoxyphenyl)-3-chloropyridine-2-carboxylic acid]",melting point,,176 to 177 °C
same,pest or weed control at 140 g/ha,"[3]; Amaranthus retroflexus, post-emergence, 336 h, read-out: % Control AMARE",90%
same,pest or weed control at 140 g/ha,"[4]; Chenopodium album, post-emergence, 336 h, read-out: % Control CHEAL",95%
same,pest or weed control at 140 g/ha,"[5]; Abutilon theophrasti, post-emergence, 336 h, read-out: % Control ABUTH",100%
same,pest or weed control at 35 g/ha,Scirpus juncoides; 35 g ai/ha,95%
same,pest or weed control at 35 g/ha,Monochoria vaginalis; 35 g ai/ha,100%
same,pest or weed control at 35 g/ha,Cyperus difformis; 35 g ai/ha,100%
same,pest or weed control at 35 g/ha,[6]; 35 g ai/ha,0%
same,pest or weed control at 35 g/ha,Echinochloa crus-galli; 35 g ai/ha,40%
same,pest or weed control at 17.5 g/ha,"Papaver rhoeas; Papaver rhoeas, post-emergence, 480 h, read-out: % Control PAPRH",95%
same,plant injury at 17.5 g/ha,"[7]; Triticum aestivum, post-emergence, 480 h, read-out: % Control TRZAS",0%
same,pest or weed control at 17.5 g/ha,"Galium aparine; Galium aparine, post-emergence, 480 h, read-out: % Control GALAP",80%
same,pest or weed control at 17.5 g/ha,"Veronica persica; Veronica persica, post-emergence, 480 h, read-out: % Control VERPE",50%
same,pest or weed control at 17.5 g/ha,"Lamium purpureum; Lamium purpureum, post-emergence, 480 h, read-out: % Control LAMPU",95%
same,pest or weed control at 17.5 g/ha,"barley (Hordeum vulare); Hordeum, post-emergence, 480 h, read-out: % Control HORVS",0%
"CCCCCCC(C)OC(=O)COc1nc(F)c(Cl)c(N)c1Cl (stereo not drawn) [Fluroxypyr MHE, fluroxypyr methylheptyl ester]",% Control HORVW Ob,[1]; [8],0%
same,% Control HORVW Ob,[1]; [9],0%
same,% Control HORVW Ob,[1]; [10],0%
same,% Control TRZAS Ob,[2]; [8],0%
same,% Control TRZAS Ob,[2]; [9],0%
same,% Control TRZAS Ob,[2]; [10],0%
same,% Control MATCH Ob,Matricaria chamomilla; [8],0%
same,% Control MATCH Ob,Matricaria chamomilla; [9],0%
same,% Control MATCH Ob,Matricaria chamomilla; [10],0%
